US8906929B2, “Inhibitors of human immunodeficiency virus replication” (priority 2012, dated 2014)

Test system: recombinant NL-Rluc virus
Assay: Inhibition of HIV replication (NL-RLuc virus in MT-2 cells, luciferase readout)
Type: cell-based
Settings: 5 days of incubation, 10% FBS
[1] = Human immunodeficiency virus 1, MT2, 120 h

## Cc1ccc2c(c1)-c1cccc(c1)-c1cc3nc(C)c([C@H](OC4(C)CCC4)C(=O)O)c(n3n1)N1CCC(C)(CC1)OCCCC[C@H](C)O2 [Example 97, (2S)-2-(1-Methylcyclobutoxy)-2-[(22S)-4,17,22,28-tetramethyl-21,27-dioxa-1,5,7,8-tetraazahexacyclo[26.2.2.1^6,^9.1^10,^14.0^2,^7.0^15,^20]tetratriaconta-2,4, 6(34), 8, 10(33), 11, 13, 15 (20),16,18-decaen-3-yl]acetic acid]
[1]
  EC50: 41 nM

## Cc1nc2cc3nn2c(c1[C@H](OC(C)(C)C)C(=O)O)N1CCC(C)(CCCCCCc2ccncc2-c2cccc-3c2)CC1 [Example 52, (2S)-2-(tert-Butoxy)-2-{4,27-dimethyl-1,5,7,8,17-pentaazahexacyclo[25.2.2.1^6,^9.1^10,^14.0^2,^7.0^15,^20]tritriaconta-2,4,6(33),8,10(32),11,13,15(20),16,18-decaen-3-yl}acetic acid]
[1]
  EC50: 5 nM

## Cc1nc2cc3nn2c(c1[C@H](OC(C)(C)C)C(=O)O)N1CCC(C)(CC1)OCCCC[C@H](C)Oc1cccc(F)c1-c1cc-3ccc1F [Example 99]
[1]
  EC50: 20 nM

## Cc1ccc2c(c1)-c1cccc(c1)-c1cc3nc(C)c([C@H](OC(C)(C)C)C(=O)O)c(n3n1)N1CCC(C)(CC1)OCCCC(C)C(C)O2 (single isomer, unassigned) [Example 92]
  EC50: 968 nM

## Cc1nc2cc3nn2c(c1[C@H](OC(C)(C)C)C(=O)O)N1CCC(C)(CC1)OCC=CCOc1ccc(F)cc1-c1cccc-3c1 [Example 62]
[1]
  EC50: 7 nM

## Cc1nc2cc3nn2c(c1[C@H](OC(C)(C)C)C(=O)O)N1CCC(C)(CC1)OCC=C[C@H](C)Oc1ccncc1-c1cccc-3c1 [Example 57, (2S)-2-(tert-Butoxy)-2-[(22S)-4,22,27-trimethyl-21,26-dioxa-1,5,7,8,17-pentaazahexacyclo[25.2.2.1^6,^9.1^10,^14.0^2,^7.0^15,^20]tritriaconta-2,4,6(33),8,10(32), 11, 13, 15(20),16,18,23-undecaen-3-yl]acetic acid]
[1]
  EC50: 300 nM

## Cc1nc2cc3nn2c(c1[C@H](OC(C)(C)C)C(=O)O)-c1ccc2c(c1Cl)N(CCCCCc1ccccc1-c1cccc-3c1)CCO2 [Example 17, (2S)-2-(tert-Butoxy)-2-{33-chloro-4-methyl-29-oxa-5,7,8,26-tetraazaheptacyclo[24.6.2.1^6,^9.1^10,^14.0^2,^7.0^15,^20.0^30,^34]hexatriaconta-1(32),2,4,6(36),8,10(35), 11,13,15(20),16,18,30,33-tridecaen-3-yl}acetic acid]
[1]
  EC50: 145 nM

## Cc1ccc2c(c1)-c1cccc(c1)-c1cc3nc(C)c([C@H](OC(C)(C)C)C(=O)O)c(n3n1)N1CCC(C)(CC1)OCCC[C@@H](C)O2 [Example 60, (2S)-2-(tert-Butoxy)-2-[(22R)-4,17,22,2,7-tetramethyl-21,26-dioxa-1,5,7,8-tetraazahexacyclo[25.2.2.1^6,^9.1^10,^14.0^2,^7.0^15,^20]tritriaconta-2,4,6(33),8,10(32),11,13,15(20),16,18-decaen-3-yl]acetic acid]
[1]
  EC50: 84 nM

## Cc1ccc2c(c1)O[C@@H](C)CCCCOC1(C)CCN(CC1)c1c([C@H](OC(C)(C)C)C(=O)O)c(C)nc3cc(nn13)-c1cccc-2c1 [Example 74, (2S)-2-(tert-Butoxy)-2-[(22S)-4,18,22,28-tetramethyl-21,27-dioxa-1,5,7,8-tetraazahexacyclo[26.2.2.1^6,^9.1^10,^14.0^2,^7.0^15,^20]tetratriaconta-2,4,6(34),8,10(33),11,13,15(20),16,18-decaen-3-yl]acetic acid]
[1]
  EC50: 36 nM

## Cc1ccc2c(c1)-c1cccc(c1)-c1cc3nc(C)c([C@H](OC(C)(C)C)C(=O)O)c(n3n1)N1CCC(C)(CC1)OCC=CCC[C@H](C)O2 [Example 64, (2S)-2-(tert-Butoxy)-2-[(22S)-4,17,22,29-tetramethyl-21,28-dioxa-1,5,7,8-tetraazahexacyclo[27.2.2.1^6,^9.1^10,^14.0^2,^7.0^15,^20]pentatriaconta-2,4,6(35),8,10(34), 11, 13, 15(20),16,18,25-undecaen-3-yl]acetic acid]
[1]
  EC50: 26 nM

## Cc1nc2cc3nn2c(c1[C@H](OC(C)(C)C)C(=O)O)N1CCC(C)(CC1)OCC=C[C@@H](C)Oc1ccncc1-c1cccc-3c1 [Example 56, (2S)-2-(tert-Butoxy)-2-[(22R)-4,22,27-trimethyl-21,26-dioxa-1,5,7,8,17-pentaazahexacyclo[25.2.2.1^6,^9.1^10,^14.0^2,^7.0^15,^20]tritriaconta-2,4,6(33),8,10(32), 11, 13, 15 (20),16,18,23-undecaen-3-yl]acetic acid]
[1]
  EC50: 351 nM

## Cc1nc2cc3nn2c(c1[C@H](OC(C)(C)C)C(=O)O)N1CCC(C)(CC1)OCCCC[C@H](C)Oc1cccc(F)c1-c1cccc-3c1 [Example 84, (2S)-2-(tert-Butoxy)-2-[(22S)-16-fluoro-4,22,28-trimethyl-21,27-dioxa-1,5,7,8-tetraazahexacyclo[26.2.2.1^6,^9.1^10,^14.0^2,^7.0^15,^20]tetratriaconta-2,4,6(34),8,10(33),11,13,15(20),16,18-decaen-3-yl]acetic acid]
[1]
  EC50: 12 nM

## Cc1nc2cc3nn2c(c1[C@H](OC(C)(C)C)C(=O)O)N1CCC(C)(/C=C/C=C\COc2ccc(Cl)cc2-c2cccc-3c2)CC1 [Example 42, (2S)-2-(tert-Butoxy)-2-[(23Z,25E)-17-chloro-4,27-dimethyl-21-oxa-1,5,7,8-tetraazahexacyclo[25.2.2.1^6,^9.1^10,^14.0^2,^7.0^15,^20]tritriaconta-2,4,6(33),8,10(32), 11, 13, 15(20),16,18,23,25-dodecaen-3-yl]acetic acid]
[1]
  EC50: 35 nM

## Cc1ccc2c(c1)-c1cccc(c1)-c1cc3nc(C)c([C@H](OC(C)(C)C)C(=O)O)c(n3n1)N1CCC(C)(CC1)OC/C=C/C[C@H](C)O2 [Example 53, (2S)-2-(tert-Butoxy)-2-[(22S,^24E)-4,17,22,28-tetramethyl-21,27-dioxa-1,5,7,8-tetraazahexacyclo[26.2.2.1^6,^9.1^10,^14.0^2,^7.0^15,^20]tetratriaconta-2,4,6(34),8,10(33),11,13,15(20),16,18,24-undecaen-3-yl]acetic acid]
[1]
  EC50: 10 nM

## Cc1nc2cc3nn2c(c1[C@H](OC(C)(C)C)C(=O)O)-c1cc2c(cc1F)OCCN2CCCCCc1ccccc1-c1cccc-3c1 [Example 6, (2S)-2-(tert-Butoxy)-2-{32-fluoro-4-methyl-29-oxa-5,7,8,26-tetraazaheptacyclo[24.6.2.1^6,^9.1^10,^14.0^2,^7.0^15,^20.0^30,^34]hexatriaconta-1(32),2,4,6(36),8,10(35), 11, 13, 15(20), 16,18,30,33-tridecaen-3-yl}acetic acid]
[1]
  EC50: 54 nM

## Cc1nc2cc3nn2c(c1[C@H](OC(C)(C)C)C(=O)O)-c1ccc2c(c1Cl)N(CC=CCCc1ccccc1-c1cccc-3c1)CCO2 [Example 4]
[1]
  EC50: 125 nM

## Cc1cc2c(cc1C)-c1cccc(c1)-c1cc3nc(C)c([C@H](OC(C)(C)C)C(=O)O)c(n3n1)N1CCC(C)(CC1)OCC=CC[C@H](C)O2 [Example 75, (2S)-2-(tert-Butoxy)-2-[(22S)-4,17,18,22,28-pentamethyl-21,27-dioxa-1,5,7,8-tetraazahexacyclo[26.2.2.1^6,^9.1^10,^14.0^2,^7.0^15,^20]tetratriaconta-2,4,6(34),8,10(33), 11, 13, 15 (20),16,18,24-undecaen-3-yl]acetic acid]
[1]
  EC50: 34 nM
